Measurements taken from publication PMC10712727, “Safety, Tolerability, and Pharmacokinetics of Senaparib, a Novel PARP1/2 Inhibitor, in Chinese Patients With Advanced Solid Tumors: A Phase I Trial” (The Oncologist, 2023).

Tested on: patients with advanced solid tumors
Test: Safety: treatment-emergent and senaparib-related adverse events graded per NCI CTCAE v4.03
Format: in vivo
Procedure: This phase I, open-label, multicenter, dose-escalation, and dose-expansion study was conducted at three national clinical institutions in China. […] At baseline, all patients enrolled in the dose-escalation phase had to have at least one evaluable lesion, and those in the dose-expansion period had to have at least one measurable lesion, according to Response Evaluation Criteria in Solid Tumors version 1.1 (RECIST v1.1).[16] Entry to the dose-expansion cohort required the presence of a BRCA mutation, with the exception of patients with ovarian carcinoma, fallopian tube carcinoma, and primary peritoneal carcinoma. Full study eligibility criteria are provided in Supplementary Table S1.
Dose escalation was conducted using a modified Fibonacci 3 + 3 method (Supplementary Fig. S1).[17] Patients were administered oral senaparib from a planned starting dose of 2 mg once daily (QD), with preliminary dose escalation to 120 mg via nine dose groups, in order of their entry into the study. At a given dose level, each patient received a single dose of senaparib followed by a 7-day washout period. They then entered a continuous dosing period to confirm the safety and PK profile, in which they received senaparib QD from day 1 to day 21 of each 3-week cycle. Progression to the next higher dose required approval from the Data Safety Monitoring Committee (DSMC) upon review of the safety and PK data of the previous dose. A 50-mg twice-daily (BID) dosing group was added (planned enrollment, n = 6 patients) based on a DSMC review of the safety, PK, and efficacy analysis of the completed QD dose groups in the phase I clinical trial of senaparib dose escalation in Australia (NCT03507543), which commenced prior to the start of this trial.
The dose-expansion period included 3 populations: dose groups in which at least one patient achieved complete response (CR) or partial response (PR) per RECIST v1.1[16] and 1 dose group higher (evaluated for safety), as well as the dose group at the maximum tolerated dose (MTD)/recommended phase II dose (RP2D). Each of these groups included those patients in the respective dose-escalation group plus a planned additional 10 patients (approximately 20 patients in the MTD/RP2D group) with BRCA^mut+ solid tumors (ovarian, breast, or prostate cancer were preferred, and ovarian cancer could be BRCA wild type). Patients received senaparib monotherapy orally QD or BID (50-mg dose only) over each 3-week cycle until disease progression or unacceptable toxicity.
DLTs were predefined toxicities (Supplementary Table S2) recorded over the 7 days following the single-dose administration of senaparib and during the first treatment cycle (day 1-day 21) for each dose group in the dose-escalation period only. The MTD was defined as the maximum dose at which ≤1/6 patients experienced a DLT. Senaparib PK parameters were derived from blood samples collected from patients after the single administration, and at regular intervals during the first cycle of the dose-escalation and dose-expansion periods. Plasma concentrations of senaparib were determined using high-performance liquid chromatography-tandem mass spectrometry. Tumor response was assessed every 6 weeks per RECIST v1.1,[16] recording objective response rate (ORR), disease control rate (DCR), duration of response (DOR), and progression-free survival (PFS) by dose level for all patients and for those harboring BRCA^mut+ tumors.

## O=C(c1cc(Cn2c(=O)[nH]c(=O)c3c(F)cccc32)ccc1F)N1CCN(c2ncccn2)CC1 [Senaparib]
TEAE, 120 mg QD n = 4
  Pain in extremity, Gr≥3: 0 n (%)
  Platelet count decreased, All: 1 (25.0) n (%)
  Platelet count decreased, Gr≥3: 0 n (%)
  Protein in urine, All: 1 (25.0) n (%)
  Protein in urine, Gr≥3: 0 n (%)
  Vomiting, All: 1 (25.0) n (%)
  Vomiting, Gr≥3: 0 n (%)
  WBC decreased, All: 4 (100) n (%)
  WBC decreased, Gr≥3: 0 n (%)
TEAE, Total N = 57
  ALT increased, All: 10 (17.5) n (%)
  ALT increased, Gr≥3: 1 (1.8) n (%)
  AST increased, All: 10 (17.5) n (%)
  AST increased, Gr≥3: 1 (1.8) n (%)
  Abdominal distension, All: 7 (12.3) n (%)
  Abdominal distension, Gr≥3: 0 n (%)
  Anemia (incl. hemoglobin decreased), Gr≥3: 12 (21.1) n (%)
  Appetite decreased, All: 14 (24.6) n (%)
  Appetite decreased, Gr≥3: 0 n (%)
  Asthenia, All: 16 (28.1) n (%)
  Asthenia, Gr≥3: 0 n (%)
  Blood bilirubin increased, All: 8 (14.0) n (%)
  Blood bilirubin increased, Gr≥3: 1 (1.8) n (%)
  Blood creatinine increased, All: 8 (14.0) n (%)
  Blood creatinine increased, Gr≥3: 0 n (%)
  Hypokalemia, All: 6 (10.5) n (%)
  Hypokalemia, Gr≥3: 0 n (%)
  Hyponatremia, All: 7 (12.3) n (%)
  Hyponatremia, Gr≥3: 1 (1.8) n (%)
  Nausea, All: 14 (24.6) n (%)
  Nausea, Gr≥3: 0 n (%)
  Neutrophil count decreased, All: 12 (21.1) n (%)
  Neutrophil count decreased, Gr≥3: 3 (5.3) n (%)
  Pain in extremity, All: 7 (12.3) n (%)
  Pain in extremity, Gr≥3: 2 (3.5) n (%)
  Platelet count decreased, All: 17 (29.8) n (%)
  Platelet count decreased, Gr≥3: 3 (5.3) n (%)
  Protein in urine, All: 6 (10.5) n (%)
  Protein in urine, Gr≥3: 0 n (%)
  Vomiting, All: 12 (21.1) n (%)
  Vomiting, Gr≥3: 2 (3.5) n (%)
  WBC decreased, All: 25 (43.9) n (%)
  WBC decreased, Gr≥3: 2 (3.5) n (%)
Total N = 57
  ALT increased TRAE, All: 10 (17.5) n (%)
  ALT increased TRAE, Gr≥3: 1 (1.8) n (%)
  AST increased TRAE, All: 10 (17.5) n (%)
  AST increased TRAE, Gr≥3: 1 (1.8) n (%)
  Anemia TRAE, Gr≥3: 12 (21.1) n (%)
  Any TEAE, All: 57 (100) n (%)
  Any TEAE, Gr≥3: 27 (47.4) n (%)
  Any TEAE, events: 491 n ev
  Any TEAE, patients: 57 (100) n (%)
  Any TRAE, All: 55 (96.5) n (%)
  Any TRAE, Gr≥3: 19 (33.3) n (%)
  Appetite decreased TRAE, All: 13 (22.8) n (%)
  Appetite decreased TRAE, Gr≥3: 0 n (%)
  Asthenia TRAE, All: 15 (26.3) n (%)
  Asthenia TRAE, Gr≥3: 0 n (%)
  Blood bilirubin increased TRAE, All: 8 (14.0) n (%)
  Blood bilirubin increased TRAE, Gr≥3: 1 (1.8) n (%)
  Blood creatinine increased TRAE, All: 8 (14.0) n (%)
  Blood creatinine increased TRAE, Gr≥3: 0 n (%)
  Hypokalemia TRAE, All: 6 (10.5) n (%)
  Hypokalemia TRAE, Gr≥3: 0 n (%)
  Nausea TRAE, All: 14 (24.6) n (%)
  Nausea TRAE, Gr≥3: 0 n (%)
  Neutrophil count decreased TRAE, All: 12 (21.1) n (%)
  Neutrophil count decreased TRAE, Gr≥3: 3 (5.3) n (%)
  Platelet count decreased TRAE, All: 16 (28.1) n (%)
  Platelet count decreased TRAE, Gr≥3: 3 (5.3) n (%)
  SAEs, events: 12 n ev
  SAEs, patients: 12 (21.1) n (%)
  TEAE Grade ≥3, events: 41 n ev
  TEAE Grade ≥3, patients: 27 (47.4) n (%)
  TEAEs leading to death, events: 2 n ev
  TEAEs leading to death, patients: 2 (3.5) n (%)
  TEAEs leading to dose discontinuation, events: 10 n ev
  TEAEs leading to dose discontinuation, patients: 6 (10.5) n (%)
  TEAEs leading to dose interruption, events: 23 n ev
  TEAEs leading to dose interruption, patients: 15 (26.3) n (%)
  TEAEs leading to dose reduction, events: 10 n ev
  TEAEs leading to dose reduction, patients: 8 (14.0) n (%)
  TRAEs Grade ≥3, events: 29 n ev
  TRAEs Grade ≥3, patients: 19 (33.3) n (%)
  TRAEs, events: 403 n ev
  TRAEs, patients: 55 (96.5) n (%)
  Vomiting TRAE, All: 10 (17.5) n (%)
  Vomiting TRAE, Gr≥3: 1 (1.8) n (%)
  WBC decreased TRAE, All: 25 (43.9) n (%)
  WBC decreased TRAE, Gr≥3: 2 (3.5) n (%)
All patients N = 57
  All other grade ≥3 TEAEs, incidence of each: ≤ 3.5%
  Anemia causing study drug discontinuation, patients: 5.3%
  Grade ≥3 TEAE: anemia, incidence: 21.1%
  Grade ≥3 TEAE: neutrophil count decreased, incidence: 5.3%
  Grade ≥3 TEAE: platelet count decreased, incidence: 5.3%
  Grade ≥3 TEAEs, incidence: 47.4%
  Grade ≥3 TRAE: anemia, incidence: 21.1%
  Overall incidence of grade ≥3 TRAEs: 33.3%
  Patients with senaparib-related adverse events (TRAEs): 96.5%
  Serious adverse events considered related to senaparib, patients: 12.3%
  Serious adverse events, patients: 21.1%
  TEAEs causing dose interruption, patients: 26.3%
  TEAEs causing dose reduction, patients: 14.0%
  TEAEs causing study drug discontinuation, patients: 10.5%
  TEAEs, number of events: 491 events
All patients N = 57, any grade
  Senaparib-related adverse event (TRAE): anemia, incidence: 80.9%
  TEAE: anemia, incidence: 80.9%
  TEAE: asthenia, incidence: 28.1%
  TEAE: platelet count decreased, incidence: 29.8%
  TEAE: white blood cell count (WBC) decreased, incidence: 43.9%
  TRAE: asthenia, incidence: 26.3%
  TRAE: platelet count decreased, incidence: 28.1%
  TRAE: white blood cell count decreased, incidence: 43.9%
All patients N = 57, neither related to senaparib
  TEAEs resulting in death, patients: 3.5%
In vivo
  Patients with most frequent (hematologic) TRAEs of grade ≤3: > 90%
Present study
  Pneumonitis and venous thromboembolic events: neither of which were observed
Present study population
  Secondary hematologic tumors (AML/MDS): no cases
